Assay [1] relates to SR. Description: CCK-8 proliferation, SR. The class given is cell-based, Human. Conditions: Table B10, compounds designed based on the IRAK4 inhibitors, SR cells, read-out: Inhibitory activity (IC50, nM) on tumor cell proliferation, SR. The procedure, abridged:
(§1)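 CCK-8 viability readout; IC50 from growth-inhibition curve fitting. Cells plated, dosed 24h later with a 10-point series, top 10µM, 5-fold steps. Culture at 37°C, 5% CO2.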

For assay [2], the system named is MGC-803. Description: CCK-8 proliferation, MGC-803 (heads: MGC80-3, MGC803). The class given is cell-based, Human. Conditions: Table B10, compounds designed based on the IRAK4 inhibitors, MGC803 cells, read-out: Inhibitory activity (IC50, nM) on tumor cell proliferation, MGC803. As to the method: (§2) The tumor cells used herein were cultured in a cell culture medium listed in table A1 at 37°C in an incubator with 5% CO2. Prior to experimentation, all cell lines used were correctly identified by STR profiling, and tested negative for mycoplasma contamination using a mycoplasma detection kit through routine screenings. Table A1. Tumor cells and cell culture medium used in the present disclosure
(§3) IC50 values of the compounds of the present disclosure (including the compounds in Table 1, and compounds of examples) were measured using the Meilun Cell Counting Kit-8 kit from Dalian Meilun Biotech Co., Ltd. Assay details are as follows: tumor cells were seeded in a 96-well plate at a density listed in Table A2. After 24h, 100 µL of the inoculated cells were treated with 0.5µL of the compounds of the present disclosure (including the compounds in Tables 1 and 2, and compounds of examples) at 10 different successively decreasing concentrations (starting at the highest concentration of 10µM; 5-fold serial dilutions). After the cells were treated with the compounds of the present disclosure for a period of time, the cell viability detection reagent was added to the culture medium for cell viability assessment according to the instructions provided with the CCK-8 kit. […] The growth inhibition of the compounds of the present disclosure on cells was plotted by Prism Graphpad software, and the IC50 values of the compounds of the present disclosure were calculated therefrom. […] Seeding protocol and treatment time for tumor cells

Assay [3] has as its target T1, IRAK4 (Homo sapiens, UniProt Q9NWZ3).
T1 construct: evaluate the effects of the compounds of the present disclosure on the expression of target proteins in cells; endogenous in cells; host or cells: hPBMC
T1 sequence (Q9NWZ3 1-460): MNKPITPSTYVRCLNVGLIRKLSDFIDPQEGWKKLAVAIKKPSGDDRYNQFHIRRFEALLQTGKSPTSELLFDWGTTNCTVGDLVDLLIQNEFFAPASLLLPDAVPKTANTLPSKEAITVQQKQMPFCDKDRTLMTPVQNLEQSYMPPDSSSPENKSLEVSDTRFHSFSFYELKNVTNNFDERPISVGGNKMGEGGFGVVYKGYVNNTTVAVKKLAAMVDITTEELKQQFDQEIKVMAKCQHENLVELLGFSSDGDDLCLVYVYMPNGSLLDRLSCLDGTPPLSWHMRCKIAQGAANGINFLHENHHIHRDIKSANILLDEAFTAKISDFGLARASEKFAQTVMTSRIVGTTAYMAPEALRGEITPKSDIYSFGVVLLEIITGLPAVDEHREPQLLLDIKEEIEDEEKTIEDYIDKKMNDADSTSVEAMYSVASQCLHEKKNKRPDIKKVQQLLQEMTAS
Description: Western blot degradation of IRAK4 (hPBMC). Format: cell-based. Conditions: Table D1. The procedure, abridged:
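Degradation is assessed by immunoblotting lysates of treated cells. Target bands are quantified by grayscale and normalised to an internal control, so degradation rate equals 100% minus % remaining.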
(In western blotting, separated proteins are transferred to a membrane and probed.)

In assay [4] the test system is MM.1S. Description: CCK-8 proliferation, MM.1S. Format: cell-based. To be noted: Table B10, compounds designed based on the IRAK4 inhibitors, MM.1S cells, read-out: Inhibitory activity (IC50, nM) on tumor cell proliferation, MM.1S. An outline of the steps: as §1
For assay [5], the system named is Jurkat. The assay is described as follows: CCK-8 proliferation, Jurkat. Format: cell-based, Human. Conditions: Table B10, compounds designed based on the IRAK4 inhibitors, Jurkat cells, read-out: Inhibitory activity (IC50, nM) on tumor cell proliferation, Jurkat. The procedure, abridged: as §1
The subject of assay [6] is H1299. The assay is described as follows: CCK-8 proliferation, H1299. On the set-up: species or system Human. To be noted: Table B10, compounds designed based on the IRAK4 inhibitors, H1299 cells, read-out: Inhibitory activity (IC50, nM) on tumor cell proliferation, H1299. As to the method:
as §2, §3

Assay [7] relates to DU-145. The assay is described as follows: CCK-8 proliferation, DU-145. Conditions: Homo sapiens, 96 hours, read-out: Inhibitory activity (IC50) on tumor cell proliferation, DU-145. Format: cell-based. As to the method:
as §2, §3

Assay [8] has as its system SW620. The assay is described as follows: CCK-8 proliferation, SW620. Format: cell-based. To be noted: Homo sapiens, SW-620; CCK-8; 96 hours; read-out: Inhibitory activity (IC50) on tumor cell proliferation, SW620. An outline of the steps:
as §1

Assay [9] has as its system LNcap. The assay is described as follows: CCK-8 proliferation, LNcap. Conditions: Homo sapiens, LNCaP; CCK-8; 96 hours; read-out: Inhibitory activity (IC50) on tumor cell proliferation, Lncap. The class given is cell-based. As to the method: as §2, §3

Experimental findings from EP4678638A1, “NEW E3 UBIQUITIN LIGASE LIGAND, PROTEIN DEGRADATION AGENT AND USE THEREOF” (priority 2023, dated 2024) are described below.

Read-outs that look alike come from different tables or passages of the source.

In the case of `O=C1CCN(c2ccc(CN3CCN(c4ccc5c(c4)nc(NC(=O)c4cccc(C(F)(F)F)c4)n5[C@H]4CC[C@@H](CO)CC4)CC3)cc2)C(=O)N1` [GT-04982, N-(5-(4-(4-(2,4-dioxotetrahydropyrimidin-1(2H)-yl)benzyl)piperazin-1-yl)-1-((1s,4s)-4-(hydroxymethyl)cyclohexyl) -1H-benzo[d]imidazol-2-yl)-3-(trifluoromethyl)benzamide], the IC50 in [1] (Homo sapiens) lay within 100 to 500 nM; in assay [2] (Homo sapiens, MGC-803), 100 to 500 nM; in [4] (Homo sapiens, MM1.S) it was 50 to 100 nM; in [5] (Homo sapiens) it was 100 to 500 nM; in assay [6] (Homo sapiens, NCI-H1299) it was 100 to 500 nM. Further, in assay [3], the “Degradation of substrate protein IRAK4 (substrate protein remaining %)” value (“Degradation … (substrate protein remaining %)” below) is on record as “A (A is defined as 0% ≤ substrate protein remaining % ≤ 80%)”.

Turning to `O=C1CCN(c2ccc(COc3ccc(Cl)cc3-c3nc4cc(C(F)(F)F)cc(Cl)c4[nH]3)cn2)C(=O)N1` [GT-06481, 1-(5-((4-chloro-2-(7-chloro-5-(trifluoromethyl)-1H-benzo[d]imidazol-2-yl)phenoxy)methyl)pyridin-2-yl)dihydropyrimidine-2,4(1H,3H)-dione], in assay [7], the IC50 lay in the range of 50 to 100 nM.

`CN(Cc1ccc(C2CCC(=O)NC2=O)c(F)c1)C1CCN(c2ncc(C(=O)Nc3ccc(OC(F)(F)Cl)cc3)cc2-c2cc[nH]n2)CC1` (stereo not drawn) [GT-04027, N-(4-(chlorodifluoromethoxy)phenyl)-6-(4-((4-(2,6-dioxopiperidin-3-yl)-3-fluorobenzyl)(methyl)amino)piperidin-1-yl)-5-(1H-pyrazol-3-yl)nicotinamide]: the IC50 in assay [8] and in assay [9] was 100 to 500 nM each time.

As to `O=C1CCN(c2cccc(CN3CCN(c4ccc(-n5cc(NC(=O)c6coc(-c7ccnc(NCC8CC8)c7)n6)c(C(F)F)n5)cc4)CC3)c2)C(=O)N1` [GT-04968, 2-(2-((cyclopropylmethyl)amino)pyridin-4-yl)-N-(3-(difluoromethyl)-1-(4-(4-(3-(2,4-dioxotetrahydropyrimidin-1(2H)-yl)benzyl)piperazin-1-yl)phenyl)-1H-pyrazol-4-yl)oxazole-4-carboxamide], the IC50 in assay [1] (Homo sapiens) fell in the range of 100 to 500 nM; in [2] (Homo sapiens, MGC-803), 100 to 500 nM; in assay [4] (Homo sapiens, MM1.S) it was 10 to 50 nM; in [5] (Homo sapiens) it was 100 to 500 nM; in assay [6] (Homo sapiens, NCI-H1299), 100 to 500 nM. Besides, the “Degradation … (substrate protein remaining %)” value in assay [3] is recorded as “A (A is defined as 0% ≤ substrate protein remaining % ≤ 80%)”.

Consider `O=C1CCC(c2ccc(CN3CCN(c4ccc5c(c4)nc(NC(=O)c4cccc(C(F)(F)F)c4)n5C4CCC(CO)CC4)CC3)cc2)C(=O)N1` (stereo not drawn) [GT-04981, N-(5-(4-(4-(2,6-dioxopiperidin-3-yl)benzyl)piperazin-1-yl)-1-((1s,4s)-4-(hydroxymethyl)cyclohexyl) -1H-benzo[d]imidazol-2-yl)-3-(trifluoromethyl)benzamide], for which the IC50 in assay [1] (Homo sapiens) is 100 to 500 nM; in [2] (Homo sapiens, MGC-803) it was 500 to 1000 nM; in assay [4] (Homo sapiens, MM1.S), 100 to 500 nM; in [5] (Homo sapiens), 500 to 1000 nM; in [6] (Homo sapiens, NCI-H1299), 500 to 1000 nM. For the same compound, in assay [3], the “Degradation … (substrate protein remaining %)” value was “A (A is defined as 0% ≤ substrate protein remaining % ≤ 80%)”.

Consider `O=C1CCN(c2ccc(CN3CCN(c4ccc(-n5cc(NC(=O)c6coc(-c7ccnc(NCC8CC8)c7)n6)c(C(F)F)n5)cc4)CC3)cn2)C(=O)N1` [GT-04970, 2-(2-((cyclopropylmethyl)amino)pyridin-4-yl)-N-(3-(difluoromethyl)-1-(4-(4-((6-(2,4-dioxotetrahydropyrimidin-1(2H)-yl)pyridin-3-yl)methyl)piperazin-1-yl)phenyl)-1H-pyrazol-4-yl)oxazole-4-carboxamide], for which the IC50 in assay [1] (Homo sapiens) lay within 50 to 100 nM; in assay [2] (Homo sapiens, MGC-803), 50 to 100 nM; in assay [4] (Homo sapiens, MM1.S), 50 to 100 nM; in assay [5] (Homo sapiens), 100 to 500 nM; in assay [6] (Homo sapiens, NCI-H1299), 100 to 500 nM. In addition, in [3], the “Degradation … (substrate protein remaining %)” value was “A (A is defined as 0% ≤ substrate protein remaining % ≤ 80%)”.

Turning to `O=C1CCN(c2cccc(COc3ccc(Cl)cc3-c3nc4cc(C(F)(F)F)cc(Cl)c4[nH]3)c2)C(=O)N1` [GT-06480, 1-(3-((4-chloro-2-(7-chloro-5-(trifluoromethyl)-1H-benzo[d]imidazol-2-yl)phenoxy)methyl)phenyl)dihydropyrimidine-2,4(1H,3H)-dione], the IC50 in [7] lay within 100 to 500 nM.

As to `O=C1CCN(c2ccc(CN3CCN(c4ccc5c(c4)nc(NC(=O)c4cccc(C(F)(F)F)c4)n5[C@H]4CC[C@@H](CO)CC4)CC3)cn2)C(=O)N1` [GT-04987, N-(5-(4-((6-(2,4-dioxotetrahydropyrimidin-1(2H)-yl)pyridin-3-yl)methyl)piperazin-1-yl)-1-((1s,4s)-4-(hydroxymethyl)cyclohexyl) -1H-benzo[d]imidazol-2-yl)-3-(trifluoromethyl)benzamide], the IC50 in assay [1], in assay [2], in [4], in assay [5] and in [6] was 100 to 500 nM in each case.

With `O=C1CCN(c2ccc(CN3CCC(n4cc(NC(=O)c5coc(-c6ccnc(NCC7CC7)c6)n5)c(C(F)F)n4)CC3)cn2)C(=O)N1` [GT-04959, 2-(2-((cyclopropylmethyl)amino)pyridin-4-yl)-N-(3-(difluoromethyl)-1-(1-((6-(2,4-dioxotetrahydropyrimidin-1(2H)-yl)pyridin-3-yl)methyl)piperidin-4-yl)-1H-pyrazol-4-yl)oxazole-4-carboxamide], the IC50 was 500 to 1000 nM in assay [4] (Homo sapiens, MM1.S) and 500 to 1000 nM in assay [6] (Homo sapiens, NCI-H1299).

As for `O=C1CCN(c2ccc(CN3CCN(c4ccc5c(c4)nc(NC(=O)c4cccc(C(F)(F)F)c4)n5[C@H]4CC[C@@H](CO)CC4)CC3)nc2)C(=O)N1` [GT-04986, N-(5-(4-((5-(2,4-dioxotetrahydropyrimidin-1(2H)-yl)pyridin-2-yl)methyl)piperazin-1-yl)-1-((1s,4s)-4-(hydroxymethyl)cyclohexyl) -1H-benzo[d]imidazol-2-yl)-3-(trifluoromethyl)benzamide], the IC50 lay within 100 to 500 nM in assay [1] (Homo sapiens); 100 to 500 nM in assay [2] (Homo sapiens, MGC-803); 100 to 500 nM in assay [4] (Homo sapiens, MM1.S); 100 to 500 nM in assay [5] (Homo sapiens); 100 to 500 nM in assay [6] (Homo sapiens, NCI-H1299). Also, the “Degradation … (substrate protein remaining %)” value in [3] was “A (A is defined as 0% ≤ substrate protein remaining % ≤ 80%)”.

Regarding `O=C1CCN(c2ccc(COc3ccc(Cl)cc3-c3nc4cc(C(F)(F)F)cc(Cl)c4[nH]3)cc2)C(=O)N1` [GT-06479, 1-(4-((4-chloro-2-(7-chloro-5-(trifluoromethyl)-1H-benzo[d]imidazol-2-yl)phenoxy)methyl)phenyl)dihydropyrimidine-2,4(1H,3H)-dione], the IC50 in assay [7] lay in the range of 100 to 500 nM.
